How the values were obtained:
[1] = test system: Penicillium and Aspergilus sp.; test: Dry-film alkyd paint mold and mildew resistance in environmental chamber (ASTM D 3273-94, ASTM D 3274-95); type: cell-based; conditions: scale of 1 to 10, 10 being totally free of growth; for ASTM RATING Mean: One month in the environmental chamber, added at 1% to alkyd paint; for ASTM Rating: Three months of continuous alkyd paint testing in the environmental chamber
Procedure: Accelerated testing of biocides in paints is conducted using environmental chambers maintained at constant high humidity (85-88% relative humidity) and temperature (30-33° C.). The chamber was primed with spores of Penicillium and Aspergilus sp. to accelerate the formation of fungal organisms. Wood panels are coated with the experimental paints and placed inside the chamber for a period of 4-12 weeks. The relative resistance of the paint to the mold and mildew inside the chamber was evaluated subjectively from a scale of 1 to 10, with 10 being totally free of growth. This test is described in more detail in ASTM D 3273-94 and ASTM D 3274-95.
Paint preservatives listed in table 5 below were added at 1% to alkyd paint formulations. HMTBA-Zn is a zinc metal chelate as described above; HMTBA-Cu is a copper metal chelate as described above; HMTBA-Mn is a manganese metal chelate as described above; BIOX-S is 6-ethoxy-1,2-dihydro-2,2,4-trimethylquinoline; BIOX-A is 88 wt. % HMTBA; BIOX-ASL contains 35 wt. % of 2-hydroxy-4-methylthio butanoic acid (88%), 45 wt. % of formic acid, 10 wt. % phosphoric acid and 10 wt. % lactic acid; and BIOX-EZ/7030 contains 70 wt. % of 6-ethoxy-1,2-dihydro-2,2,4-trimethylquinoline and 30 wt. % of HMTBA-Zn metal chelate. Troy663 is a positive control.

[2] = test system: Pseudomonas aeruginosa ATCC 10145 and Enterobacter aerogenes ATCC 13048; test: In-can paint preservation: bacterial resistance rating of inoculated water borne paint; type: cell-based; parameters: key: 0: no bacterial recovery; trace of contamination (1 to 9 colonies); 2: light contamination (10 to 99 colonies); 3: moderate contamination (>100 distinct colonies); 4: heavy contamination (continuous smear of growth)
Procedure: Paint preservatives listed in the tables below were added at the listed concentrations to water borne paint formulations. BIOX-ASL contains 35 wt. % of 2-hydroxy-4-methylthio butanoic acid (88%), 45 wt. % of formic acid, 10 wt. % phosphoric acid and 10 wt. % lactic acid; BIOX-AWD contains 40 wt. % of 2-hydroxy-4-methylthio butanoic acid, 40 wt. % of formic acid and 20 wt. % propionic acid; BIOX-ASDA contains 36.4 wt. % of calcium bis(2-hydroxy-4-methylthiobuanoate), 41.9 wt. % of fumaric acid, 20 wt. % of benzoic acid, 0.9 wt. % flow aid and 0.73 wt. % other additives; HTA and BIOBAN BP30 are commercially available; BIOX-Z is a HMTBA-Zn metal chelate, and BIOX-C is a HMTBA-Cu metal chelate.
The paints were inoculated with Pseudomonas aeruginosaATCC 10145 and Enterobacter aerogenes ATCC 13048 at a level of 0.1% inoculum, and paints were then sampled during the next seven days to determine the number of bacterial colonies surviving in the paint. The efficacy of the added antimicrobial agents were given a numeric rating based on the following system: (0) for no bacterial recovery, (1) for trace of contamination (1 to 9 colonies), (2) for light contamination (10 to 99 colonies), (3) for moderate contamination (>100 distinct colonies) and (4) for heavy contamination (continuous smear of growth).
The paints were then inoculated at a level of 1.0% inoculum and were again sampled during the next seven days to determine the number of bacterial colonies surviving in the paint. These ratings were also plotted versus day after inoculation for each concentration of BIOX-ASL, BIOX-AWD, BIOX-ASDA, and BIOX-C, and are presented in FIGS. 1-4. The minimum inhibitory concentration (MIC) of each BIOX biocide was much lower after one week than those of commercially available products, as shown in FIG. 5.

[3] = Table 3, Week 1: 0.1% Inoculum, sample at 1.0%
[4] = Table 3, Week 2: 1.0% Inoculum, sample at 1.0%
[5] = Table 4, Week 1: 0.1% Inoculum, sample at 1.0% (Bioban BP30: concentration not given)
[6] = Table 4, Week 2: 1.0% Inoculum, sample at 1.0%
[7] = Table 1, week 1, 0.1% inoculum, 5 ppm in water borne paint
[8] = Table 1, week 1, 0.1% inoculum, 25 ppm in water borne paint
[9] = Table 2, week 2, 1.0% inoculum, 5 ppm in water borne paint
[10] = Table 2, week 2, 1.0% inoculum, 25 ppm in water borne paint

Structure (SMILES): CSCCC(O)C(=O)O (stereo not drawn) [BIOX-A, 2-hydroxy-4(methylthio)butanoic acid]
- ASTM RATING Mean [1]: 9.2

Structure (SMILES): c1cc[n+]2c(c1)[S][Zn-2]1([O]2)[O][n+]2ccccc2[S]1 [ZINC-OMADINE, reference compound]
- ASTM Rating [1]: 8.3 ± 0.8

Structure (SMILES): CSCCC(O)C(=O)[O-].CSCCC(O)C(=O)[O-].[Zn+2] (stereo not drawn) [BIOX-Z]
- ASTM RATING Mean [1]: 8.7
- Bacterial Resistance Rating, Day 1 [2, 3]: 0
- Bacterial Resistance Rating, Day 2 [2, 3]: 0
- Bacterial Resistance Rating, Day 5 [2, 3]: 0
- Bacterial Resistance Rating, Day 7 [2, 3]: 0
- Bacterial Resistance Rating, Initial [2, 3]: 4
- Bacterial Resistance Rating, Day 1 [2, 4]: 1 (trace of contamination (1 to 9 colonies))
- Bacterial Resistance Rating, Day 2 [2, 4]: 0
- Bacterial Resistance Rating, Day 5 [2, 4]: 0
- Bacterial Resistance Rating, Day 7 [2, 4]: 0
- Bacterial Resistance Rating, Initial [2, 4]: 4
- Bacterial Resistance Rating, Day 1 [2, 5]: 1 (trace of contamination (1 to 9 colonies))
- Bacterial Resistance Rating, Day 2 [2, 5]: 0
- Bacterial Resistance Rating, Day 5 [2, 5]: 0
- Bacterial Resistance Rating, Day 7 [2, 5]: 0
- Bacterial Resistance Rating, Initial [2, 5]: 4
- Bacterial Resistance Rating, Day 1 [2, 6]: 1 (trace of contamination (1 to 9 colonies))
- Bacterial Resistance Rating, Day 2 [2, 6]: 0
- Bacterial Resistance Rating, Day 5 [2, 6]: 0
- Bacterial Resistance Rating, Initial [2, 6]: 4

Structure (SMILES): C1N2CN3CN1CN(C2)C3 [HTA, reference compound]
- Bacterial Resistance Rating, Day 1 [2, 3]: 4
- Bacterial Resistance Rating, Day 2 [2, 3]: 4
- Bacterial Resistance Rating, Day 5 [2, 3]: 4
- Bacterial Resistance Rating, Day 7 [2, 3]: 4
- Bacterial Resistance Rating, Initial [2, 3]: 4

Structure (SMILES): CCOc1ccc2c(c1)C(C)=CC(C)(C)N2 [BIOX-S, 6-ethoxy-1,2-dihydro-2,2,4-trimethylquinoline]
- ASTM RATING Mean [1]: 9.2

Structure (SMILES): CSCCC(O)C(=O)[O-].CSCCC(O)C(=O)[O-].[Mn+2] (stereo not drawn) [HMTBA-Mn]
- ASTM RATING Mean [1]: 7.8

Structure (SMILES): [Cu+2].[O-]n1ccccc1=S.[O-]n1ccccc1=S [COPPER OMADINE, reference compound]
- ASTM Rating [1]: 9.2 ± 0.4

Structure (SMILES): CSCCC(O)C(=O)[O-].CSCCC(O)C(=O)[O-].[Cu+2] (stereo not drawn) [BIOX-C, copper 2-hydroxy-4-methylthiobutanoate chelate]
- ASTM RATING Mean [1]: 9.3
- ASTM Rating [1]: 9.0 ± 0.6
- Bacteria Resistance Rating, Before Inoculation [2, 7]: 0
- Bacteria Resistance Rating, Day 1 [2, 7]: 0
- Bacteria Resistance Rating, Day 2 [2, 7]: 0
- Bacteria Resistance Rating, Day 5 [2, 7]: 0
- Bacteria Resistance Rating, Day 7 [2, 7]: 0
- Bacteria Resistance Rating, Initial Inoculation [2, 7]: 4
- Bacteria Resistance Rating, Before Inoculation [2, 8]: 0
- Bacteria Resistance Rating, Day 1 [2, 8]: 0
- Bacteria Resistance Rating, Day 2 [2, 8]: 0
- Bacteria Resistance Rating, Day 5 [2, 8]: 0
- Bacteria Resistance Rating, Day 7 [2, 8]: 0
- Bacteria Resistance Rating, Initial Inoculation [2, 8]: 4
- Bacteria Resistance Rating, Before Inoculation [2, 9]: 0
- Bacteria Resistance Rating, Day 1 [2, 9]: 3 (moderate contamination (>100 distinct colonies))
- Bacteria Resistance Rating, Day 2 [2, 9]: 1 (trace of contamination (1 to 9 colonies))
- Bacteria Resistance Rating, Day 5 [2, 9]: 0
- Bacteria Resistance Rating, Day 7 [2, 9]: 0
- Bacteria Resistance Rating, Initial Inoculation [2, 9]: 4
- Bacteria Resistance Rating, Before Inoculation [2, 10]: 0
- Bacteria Resistance Rating, Day 1 [2, 10]: 3 (moderate contamination (>100 distinct colonies))
- Bacteria Resistance Rating, Day 2 [2, 10]: 0
- Bacteria Resistance Rating, Day 5 [2, 10]: 0
- Bacteria Resistance Rating, Day 7 [2, 10]: 0
- Bacteria Resistance Rating, Initial Inoculation [2, 10]: 4
- Bacterial Resistance Rating, Day 1 [2, 3]: 2 (light contamination (10 to 99 colonies))
- Bacterial Resistance Rating, Day 2 [2, 3]: 0
- Bacterial Resistance Rating, Day 5 [2, 3]: 0
- Bacterial Resistance Rating, Day 7 [2, 3]: 0
- Bacterial Resistance Rating, Initial [2, 3]: 4
- Bacterial Resistance Rating, Day 1 [2, 4]: 0
- Bacterial Resistance Rating, Day 2 [2, 4]: 0
- Bacterial Resistance Rating, Day 5 [2, 4]: 0
- Bacterial Resistance Rating, Day 7 [2, 4]: 0
- Bacterial Resistance Rating, Initial [2, 4]: 4
- Bacterial Resistance Rating, Day 1 [2, 5]: 0
- Bacterial Resistance Rating, Day 2 [2, 5]: 0
- Bacterial Resistance Rating, Day 5 [2, 5]: 0
- Bacterial Resistance Rating, Day 7 [2, 5]: 0
- Bacterial Resistance Rating, Initial [2, 5]: 4
- Bacterial Resistance Rating, Day 1 [2, 6]: 0
- Bacterial Resistance Rating, Day 2 [2, 6]: 0
- Bacterial Resistance Rating, Day 5 [2, 6]: 0
- Bacterial Resistance Rating, Initial [2, 6]: 4

From US20070053866A1, “IN-CAN AND DRY COATING ANTIMICROBIAL COMPOSITIONS HAVING HYDROXY ANALOGS OF METHIONINE AND DERIVATIVES” (NOVUS INTERNATIONAL INC., priority 2005, published 2007)
